pEC50: −log10 of the molar value.

This test deals with HCV replicon. Description: Replicon based assay of HCV replication inhibition (NPT ELISA). Type of test: cell-based, Hepatitis C virus. Particulars: Hepatitis C virus, replicon based assay of HCV replication inhibition; Table IV; read-out: Activity. In outline: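 Huh-7 cells carrying a bicistronic HCV replicon (neo, EMCV-IRES-driven NS3–NS5B) treated overnight after seeding with usually 6 concentrations, 10 to 0.03 micromolar, for three days at 37° C without G418. Replication read as NPT level by captured ELISA; matched-DMSO wells and interferon alpha as controls.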
Consider `Cc1cc(C)c(Nc2nc(-c3cccnc3)cs2)c(C)c1` [compound 883, N-mesityl-4-(pyridin-3-yl)thiazol-2-amine], for which the pEC50 is under 5.00. Regarding `Cc1ccc(Nc2nc(-c3cccnc3)cs2)cc1` [compound 884, 4-(pyridin-3-yl)-N-p-tolylthiazol-2-amine], the pEC50 was under 5.00. Next, `FC(F)(F)Oc1ccc(Nc2nc(-c3cccnc3)cs2)cc1` [compound 885, 4-(pyridin-3-yl)-N-(4-(trifluoromethoxy)phenyl)thiazol-2-amine]: 5.00 to 6.00.

In the case of `COc1ccc(Nc2nc(-c3cccnc3)cs2)cc1` [compound 886, N-(4-methoxyphenyl)-4-(pyridin-3-yl)thiazol-2-amine], the pEC50 is under 5.00. Next, `CC(C)c1ccc(Nc2nc(-c3cccnc3)cs2)cc1` [compound 887, N-(4-isopropylphenyl)-4-(pyridin-3-yl)thiazol-2-amine]: 5.00 to 6.00. As for `Fc1ccc(C(F)(F)F)cc1Nc1nc(-c2cccnc2)cs1` [compound 888, N-(2-fluoro-5-(trifluoromethyl)phenyl)-4-(pyridin-3-yl)thiazol-2-amine], the pEC50 is 5.00 to 6.00.

Regarding `Fc1ccc(Nc2nc(-c3cccnc3)cs2)c(F)c1F` [compound 889, N-(2,3,4-trifluorophenyl)-4-(pyridin-3-yl)thiazol-2-amine], the pEC50 was under 5.00. With `Fc1c(Nc2nc(-c3cccnc3)cs2)cccc1C(F)(F)F` [compound 890, N-(2-fluoro-3-(trifluoromethyl)phenyl)-4-(pyridin-3-yl)thiazol-2-amine], the pEC50 is 5.00 to 6.00.

Consider `FC(F)(F)c1ccc(Nc2nc(-c3cccnc3)cs2)cc1` [compound 891, N-(4-(trifluoromethyl)phenyl)-4-(pyridin-3-yl)thiazol-2-amine], for which the pEC50 was 5.00 to 6.00. To `CC(C)(C)c1ccc(Nc2nc(-c3cccnc3)cs2)cc1` [compound 892, N-(4-tert-butylphenyl)-4-(pyridin-3-yl)thiazol-2-amine] belongs 5.00 to 6.00; to `CC(C)(C)c1cccc(Nc2nc(-c3cccnc3)cs2)c1` [compound 893, N-(3-tert-butylphenyl)-4-(pyridin-3-yl)thiazol-2-amine], under 5.00. Next, `CC(C)(C)c1cc(Nc2nc(-c3cccnc3)cs2)cc(C(C)(C)C)c1` [compound 894, N-(3,5-di-tert-butylphenyl)-4-(pyridin-3-yl)thiazol-2-amine]: over 6.00; `CC(C)(C)OC(=O)Nc1ccc(Nc2nc(-c3cccnc3)cs2)cc1` [compound 895, tert-butyl 4-(4-(pyridin-3-yl)thiazol-2-ylamino)phenylcarbamate]: under 5.00; `Clc1ccc(Oc2ccc(Nc3nc(-c4cccnc4)cs3)cc2)cc1` [compound 896, N-(4-(4-chlorophenoxy)phenyl)-4-(pyridin-3-yl)thiazol-2-amine]: over 6.00. On to `Cc1ccc(Oc2ccc(Nc3nc(-c4cccnc4)cs3)cc2)cc1` [compound 897, N-(4-(p-tolyloxy)phenyl)-4-(pyridin-3-yl)thiazol-2-amine], for which the pEC50 is over 6.00. Next, `Cc1c(C)c(C)c(C(=O)CCc2cccc(Nc3nc(-c4cccnc4)cs3)c2)c(C)c1C` [compound 898, 3-(3-(4-(pyridin-3-yl)thiazol-2-ylamino)phenyl)-1-(2,3,4,5,6-pentamethylphenyl)propan-1-one]: over 6.00; `Cc1c(Nc2nc(-c3cccnc3)cs2)cccc1C(F)(F)F` [compound 899, N-(3-(trifluoromethyl)-2-methylphenyl)-4-(pyridin-3-yl)thiazol-2-amine]: 5.00 to 6.00.

Consider `CCCCc1ccc(Nc2nc(-c3cccnc3)cs2)c(C)c1` [compound 900, N-(4-butyl-2-methylphenyl)-4-(pyridin-3-yl)thiazol-2-amine], for which the pEC50 is over 6.00. Next, `COc1cc(Nc2nc(-c3cccnc3)cs2)cc(OC)c1` [compound 901, N-(3,5-dimethoxyphenyl)-4-(pyridin-3-yl)thiazol-2-amine]: 5.00 to 6.00. Next, `CCC(C)(C)c1ccc(Oc2ccccc2)c(Nc2nc(-c3cccnc3)cs2)c1` [compound 902, N-(5-tert-pentyl-2-phenoxyphenyl)-4-(pyridin-3-yl)thiazol-2-amine]: over 6.00; `COc1cc(-c2ccccc2)c(C)cc1Nc1nc(-c2cccnc2)cs1` [compound 903]: over 6.00. Take `O=C(O)c1ccc(Oc2ccc(Nc3nc(-c4cccnc4)cs3)cc2)cc1` [compound 904, 4-(4-(4-(pyridin-3-yl)thiazol-2-ylamino)phenoxy)benzoic acid]: the pEC50 is over 6.00.

Turning to `Cc1ccc(-c2ccccc2)cc1Nc1nc(-c2cccnc2)cs1` [compound 905], the pEC50 was under 5.00. `Cc1cc(C)cc(Nc2nc(-c3cccnc3)cs2)c1` [compound 906, N-(3,5-dimethylphenyl)-4-(pyridin-3-yl)thiazol-2-amine]: the pEC50 was 5.00 to 6.00. Next, `CCOC(=O)/C=C/c1ccc(Nc2nc(-c3cccnc3)cs2)cc1` [compound 907, (E)-ethyl 3-(4-(4-(pyridin-3-yl)thiazol-2-ylamino)phenyl)acrylate]: under 5.00; `FC(F)(F)c1cccc(Nc2nc(-c3cccnc3)cs2)c1` [compound 908, N-(3-(trifluoromethyl)phenyl)-4-(pyridin-3-yl)thiazol-2-amine]: over 6.00. To `O=C(O)Cc1ccc(Nc2nc(-c3cccnc3)cs2)cc1` [compound 909, 2-(4-(4-(pyridin-3-yl)thiazol-2-ylamino)phenyl)acetic acid] belongs under 5.00. With `Cc1noc(NS(=O)(=O)c2ccc(Nc3nc(-c4cccnc4)cs3)cc2)c1C` [compound 910], the pEC50 is under 5.00. To `O=S(=O)(Nc1ccccn1)c1ccc(Nc2nc(-c3cccnc3)cs2)cc1` [compound 911] belongs under 5.00. To `Fc1cc(Nc2nc(-c3cccnc3)cs2)ccc1OCCCCc1ccccc1` [compound 912, N-(4-(4-phenylbutoxy)-3-fluorophenyl)-4-(pyridin-3-yl)thiazol-2-amine] belongs over 6.00. Consider `CCCCCCCCOc1ccc(Nc2nc(-c3cccnc3)c(C#N)s2)cc1C(F)(F)F` [compound 913, 2-(3-(trifluoromethyl)-4-(octyloxy)phenylamino)-4-(pyridin-3-yl)thiazole-5-carbonitrile], for which the pEC50 is 5.00 to 6.00.

For `CCCCCCCCOc1ccc(Nc2nc(-c3cccnc3)c(F)s2)cc1C(F)(F)F` [compound 914, 5-fluoro-N-(3-(trifluoromethyl)-4-(octyloxy)phenyl)-4-(pyridin-3-yl)thiazol-2-amine], the pEC50 is over 6.00. In the case of `CCCCCCCCOc1ccc(Nc2nc(-c3csc(C)n3)cs2)cc1C(F)(F)F` [compound 915, N-(3-(trifluoromethyl)-4-(octyloxy)phenyl)-4-(2-methylthiazol-4-yl)thiazol-2-amine], the pEC50 is over 6.00. To `CCCCCCCCOc1ccc(Nc2nc(-c3csc(N)n3)cs2)cc1C(F)(F)F` [compound 916, 4-(2-(3-(trifluoromethyl)-4-(octyloxy)phenylamino)thiazol-4-yl)thiazol-2-amine] belongs over 6.00. To `CCCCCCCCOc1ccc(Nc2nc(C(=O)CSc3ccccn3)cs2)cc1C(F)(F)F` [compound 917, 1-(2-(3-(trifluoromethyl)-4-(octyloxy)phenylamino)thiazol-4-yl)-2-(pyridin-2-ylthio)ethanone] belongs 5.00 to 6.00; to `CCCCCCCCOc1ccc(Nc2nc(-c3cccnc3)c(Cl)s2)cc1C(F)(F)F` [compound 918, 5-chloro-N-(3-(trifluoromethyl)-4-(octyloxy)phenyl)-4-(pyridin-3-yl)thiazol-2-amine], over 6.00. In the case of `COc1ncc(-c2csc(Nc3ccc4c(ccn4Cc4ccc(F)cc4)c3)n2)cn1` [compound 919, 1-(4-fluorobenzyl)-N-(4-(2-methoxypyrimidin-5-yl)thiazol-2-yl)-1H-indol-5-amine], the pEC50 is 5.00 to 6.00. Next, `c1ccc(CCCOc2ccc(Nc3nc(-c4cccnc4)cs3)cc2)cc1` [compound 920, N-(4-(3-phenylpropoxy)phenyl)-4-(pyridin-3-yl)thiazol-2-amine]: over 6.00; `c1ccc(CCCCOc2ccc(Nc3nc(-c4cccnc4)cs3)cc2)cc1` [compound 921, N-(4-(4-phenylbutoxy)phenyl)-4-(pyridin-3-yl)thiazol-2-amine]: over 6.00. Turning to `c1cncc(-c2csc(Nc3ccc(OCCCCc4cccs4)cc3)n2)c1` [compound 922, N-(4-(4-(thiophen-2-yl)butoxy)phenyl)-4-(pyridin-3-yl)thiazol-2-amine], the pEC50 was over 6.00.

Turning to `CCCCCCCCOc1ccc(Nc2nc(-c3cccnc3)c(N)s2)cc1C(F)(F)F` [compound 923, N^2-(3-(trifluoromethyl)-4-(octyloxy)phenyl)-4-(pyridin-3-yl)thiazole-2,5-diamine], the pEC50 is over 6.00. Next, `FC(F)(F)c1cc(Nc2nc(-c3cccnc3)cs2)ccc1OCCCOc1ccccc1` [compound 924, N-(4-(3-phenoxypropoxy)-3-(trifluoromethyl)phenyl)-4-(pyridin-3-yl)thiazol-2-amine]: over 6.00. To `O=C(O)Cc1ccc(-c2csc(Nc3ccc(OCCCCc4cccs4)c(C(F)(F)F)c3)n2)s1` [compound 925, 2-(5-(2-(4-(4-(thiophen-2-yl)butoxy)-3-(trifluoromethyl)phenylamino)thiazol-4-yl)thiophen-2-yl) acetic acid] belongs over 6.00; to `CCOC(=O)Cc1ccc(-c2csc(Nc3ccc(OCCCCc4cccs4)c(C(F)(F)F)c3)n2)s1` [compound 926, ethyl 2-(5-(2-(4-(4-(thiophen-2-yl)butoxy)-3-(trifluoromethyl)phenylamino)thiazol-4-yl)thiophen-2-yl)acetate], 5.00 to 6.00; to `O=C(O)Cc1ccc(-c2csc(Nc3ccc(OCCCCc4ccccc4)c(C(F)(F)F)c3)n2)s1` [compound 927, 2-(5-(2-(4-(4-phenylbutoxy)-3-(trifluoromethyl)phenylamino)thiazol-4-yl)thiophen-2-yl)acetic acid], over 6.00.

Values taken from patent publication US8088806B2 (Achillion Pharmaceuticals, Inc., priority 2005, dated 2012).
